38 compounds from US11377444B2, “Pyridopyrimidine compounds acting as mTORC 1/2 dual inhibitors” (MEDSHINE DISCOVERY INC., priority 2017, dated 2022) can be followed below.

In experiment [1] the target is T1, mTOR kinase (mTORC1 and mTORC2 kinase complex) (Homo sapiens, UniProt P42345).
T1 construct: purchased DiscoverX; host or cells: HEK-293
Nature of the experiment: In vitro evaluation of mTOR kinase inhibitory activity (DiscoverX ligand-bead competition binding, qPCR readout). As to the method: Experimental Embodiment 1: In Vitro Evaluation of mTOR Kinase Inhibitory Activity This experiment was performed by DiscoverX. All materials and methods were obtained from DiscoverX.
Kinase activity analysis.
1. Labeled mTOR kinase was stably expressed in HEK-293 cells.
2. Streptavidin magnetic beads were treated with biotinylated small molecule ligands at room temperature for 30 minutes to produce affinity resin for kinase analysis;
3. Ligand beads were blocked with excess biotin and washed with buffer (1% bovine serum albumin, […]) to remove unbound ligand and non-specifically bound ligand;
4. The assembly of kinase and ligand and affinity beads, and the binding reaction between the compound and the three were performed in buffer (20% blocking buffer, 0.17x phosphate buffer, 0.05% Tween […]);
5. The test compounds were dissolved in dimethyl sulfoxide;
6. All test compounds were dissolved in DMSO, and then directly diluted […]
7. The solution was placed in a 384-well polypropylene plate, wherein the volume of each well was 0.02 mL;
8. The plate was shaked for an hour at room temperature;
9. The plate was washed with buffer (1× PBS, 0.05% Tween 20);
10. The affinity beads were resuspended in buffer (1× PBS, 0.05% Tween […] non-biotin affinity ligand) and incubated at room temperature for 30 minutes;
11. The kinase concentration in the eluate was deteced by qPCR.

Experiment [2] has as its system human breast cancer MCF-7 cell subcutaneous xenograft tumor. Nature of the experiment: In vivo pharmacodynamic study, MCF-7 subcutaneous xenograft tumor. The arrangement: species or system BALB/c nude mouse. The settings on record: 15 mg/kg. The source says:
Experimental Embodiment 4: In Vivo Pharmacodynamic Study on BALB/c Nude Mouse Model of Human Breast Cancer MCF-7 Cell Subcutaneous Xenograft Tumor
Experimental objective: To study the efficacy of the test compounds on human breast cancer MCF-7 cell subcutaneous xenograft tumor in BALB/c nude mouse model.
Experimental animals: Female BALB/c nude mice, 6-8 weeks old, weighing 18-22 grams; supplier: Shanghai Xipuer-Bikai Experimental Animal Co., Ltd.
Human breast cancer MCF-7 cells (ECACC, article number: 86012803) were subjected to in vitro monolayer culture under the conditions of EMEM (EBSS)+2 mM […]+1% Non Essential Amino Acids (NEAA) medium containing 10% fetal bovine serum, 100 U/mL penicillin and 100 μg/mL streptomycin, and 37° C., 5% CO2incubator. Conventional digestion treatment was carried out with trypsin-EDTA twice a week for cell passage. When the cell saturation was 80%-90%, and the quantity reached the requirement, the cells were collected, counted and inoculated.
Estrogen tablets (0.18 mg) were inoculated into the left back of each mouse three days before cell inoculation, 0.2 mL (1×10^7) MCF-7 cells (added with matrigel, volume ratio of 1:1) were subcutaneously inoculated into the right back of each mouse. When the average volume of tumor reached 142 mm^3, the mice were divided into groups and began to be administrated.
The test compounds were prepared into clear solutions of 0.75 mg/mL, 1.5 mg/mL and 3 mg/mL. The vehicles were 5% DMSO+30% polyethylene glycol 300+65% water.
The experimental indexes were used for investigating whether the growth of the tumors had been inhibited, delayed or cured. The diameters of the tumors were measured with vernier calipers twice a week. The calculation formula of the tumor volume was: V=0.5a×b^2, wherein a and b represent the long and short diameters of the tumor respectively.
The antitumor efficacy of the compound was evaluated by TGI (%) or relative tumor proliferation rate T/C (%). TGI (%) reflects the inhibition rate of the tumor growth. Calculation of TGI (%): TGI (%)=[1−(average tumor volume at the end of administration in the treatment group−average tumor volume at the beginning of administration in the treatment group)/(average tumor volume at the end of treatment in the vehicle control group−average tumor volume at the beginning of treatment in the vehicle control group)]×[…].
Relative tumor proliferation rate T/C (%): The calculation formula was as follows: T/C %=TRTV/CRTV at the beginning of the treatment (TRTV: treatment group RTV; CRTV: negative control group RTV). The relative tumor volume (RTV) was calculated according to the results of tumor measurement. The calculation formula was RTV=Vt/V0, wherein V0 is the average tumor volume measured during administration of the groups (i.e. d0), and Vt is the average tumor volume during a certain measurement, the TRTV and CRTV were taken on the same day.
Statistical analysis included the mean and standard error (SEM) of tumor volume at each time point in each group. […] The comparison between two groups was analyzed by T-test, and the comparison between three or more groups was analyzed by one-way ANOVA.

Broadly, the Kd is a measure of binding affinity in units of concentration. A low value points to a tighter complex. Regarding `CNC(=O)c1cccc(-c2ccc3c(N4CCOCC4C)nc(N4CCOC5CC54)nc3n2)c1` (single isomer, unassigned) [Embodiment 18-1], the dissociation constant (Kd) in experiment [1] came out at 3 nM. This lies in the single-digit nanomolar range.
Same read-out and setting: with `CNC(=O)c1cccc(-c2ccc3c(N4CCOCC4C)nc(N4CCOC5CC54)nc3n2)c1` (single isomer, unassigned) [Embodiment 18-2] the figure was 0.5 nM; with `CNC(=O)c1cccc(-c2ccc3c(N4CCOCC4C)nc(N4CCOC5(CCSC5)C4)nc3n2)c1` (single isomer, unassigned) [Embodiment 45-1], 0.5 nM; with `CNC(=O)c1cccc(-c2ccc3c(N4CCOCC4C)nc(N4CCOC5(CCSC5)C4)nc3n2)c1` (single isomer, unassigned) [Embodiment 45-2], 1.7 nM.
Still for that read-out and setting: with `CNC(=O)c1cccc(-c2ccc3c(N4CCOCC4C)nc(N4CCOC5(CC[S+]([O-])C5)C4)nc3n2)c1` (single isomer, unassigned) [Embodiment 46-1] the figure was 1 nM; with `CNC(=O)c1cccc(-c2ccc3c(N4CCOCC4C)nc(N4CCOC5(CC[S+]([O-])C5)C4)nc3n2)c1` (single isomer, unassigned) [Embodiment 46-2], 4.9 nM.
For the compound `CNC(=O)c1cccc(-c2ccc3c(N4CCOCC4C)nc(N4CCOC5(CCS(=O)(=O)C5)C4)nc3n2)c1` (single isomer, unassigned) [Embodiment 47-1], binding in experiment [1] was characterised by a dissociation constant (Kd) of 7.9 nM. This Kd lies about 1.6-fold higher than the previous one.
On the same count and under the same terms, to `CNC(=O)c1cccc(-c2ccc3c(N4CCOCC4C)nc(N4CCOC5(CCS(=O)(=O)C5)C4)nc3n2)c1` (single isomer, unassigned) [Embodiment 47-2] belongs 7.9 nM; to `CNC(=O)c1cccc(-c2ccc3c(N4CCOCC4C)nc(N4CC5(CCOC5)OCC4C)nc3n2)c1` (single isomer, unassigned) [Embodiment 48-1], 1.8 nM; to `CC1COCCN1c1nc(N2CCOC3(CCOC3)C2)nc2nc(-c3cccc(C(N)=O)c3)ccc12` (single isomer, unassigned) [Embodiment 50-1], 1.9 nM.
In experiment [1], `CNC(=O)c1cccc(-c2ccc3c(N4CCOCC4C)nc(N4CCOC5(CNC(=O)C5)C4)nc3n2)c1` (single isomer, unassigned) [Embodiment 53-1] came in with a Kd of 1.1 nM. Against the preceding compound, the Kd is about 1.7-fold lower.
For the compound `CNC(=O)c1cccc(-c2ccc3c(N4CCOCC4C)nc(N4CCOC5(CNC(=O)C5)C4)nc3n2)c1` (single isomer, unassigned) [Embodiment 53-2], in experiment [1], the equilibrium dissociation constant (Kd) amounted to 1.8 nM.
In experiment [1], `CNC(=S)c1cccc(-c2ccc3c(N4CCOC[C@@H]4C)nc(N4CCOC5(CC5)C4)nc3n2)c1` [Embodiment 2] showed a Kd of 0.15 nM. This Kd lies about 12-fold lower than the previous one.
In experiment [1], `CONC(=O)c1cccc(-c2ccc3c(N4CCOC[C@@H]4C)nc(N4CCOC5(CC5)C4)nc3n2)c1` [Embodiment 3] had a dissociation constant (Kd) of 0.32 nM. Against the preceding compound, the Kd is about 2.1-fold higher.
The compound `C[C@H]1COCCN1c1nc(N2CCOC3(CC3)C2)nc2nc(-c3cccc(C(=O)NO)c3)ccc12` [Embodiment 4] had a Kd in experiment [1] of 0.22 nM.
As to `CNC(=O)c1cccc(-c2ccc3c(N4CCOC[C@@H]4C)nc(C4CCC5(CC4)OCCO5)nc3n2)c1` [Embodiment 5], the Kd in experiment [1] amounted to 0.66 nM.
In turn, `CNC(=O)c1cccc(-c2ccc3c(N4CCOC[C@@H]4C)nc(N4CC5(CCOCC5)C4)nc3n2)c1` [Embodiment 6] returned a Kd in experiment [1] of 12 nM.
On the same count and under the same terms, to `CNC(=O)c1cccc(-c2ccc3c(N4CCOC[C@@H]4C)nc(N4CCC5(CC4)COC5)nc3n2)c1` [Embodiment 7] belongs 6.4 nM; to `CNC(=O)c1cccc(-c2ccc3c(N4CCOCC4C)nc(N4CCC5(CCOC5)CC4)nc3n2)c1` (stereo not shown) [Embodiment 8], 5.9 nM; to `CNC(=O)c1cccc(-c2ccc3c(N4CCOCC4C)nc(N4CCC5(CC4)CC5)nc3n2)c1` (stereo not shown) [Embodiment 10], 7.8 nM.
The same measure, in the same setting: with `Nc1nc2cc(-c3ccc4c(N5C6CCC5COC6)nc(N5CCOC6(CC6)C5)nc4n3)ccc2o1` [Embodiment 11] the figure was 1.2 nM; with `C[C@H]1COCCN1c1nc(N2CCOC3(CC3)C2)nc2nc(-c3ccc4ccc(N)nc4c3)ccc12` [Embodiment 14], 0.25 nM.
As for `CNC(=O)c1cccc(-c2ccc3c(N4CCOC[C@@H]4C)nc(N4CCOC5(CNC5)C4)nc3n2)c1` [Embodiment 15], in experiment [1], the affinity, expressed as Kd, was 3.3 nM.
The same measure, in the same setting: to `C[C@H]1COCCN1c1nc(N2CCOC3(CC3)C2)nc2nc(-c3ccc4nc(N)ncc4c3)ccc12` [Embodiment 16] belongs 1.5 nM; to `C[C@H]1COCCN1c1nc(N2CCOC3(CC3)C2)nc2nc(-c3cccc(-c4ccn[nH]4)c3)ccc12` [Embodiment 17], 3.4 nM; to `C[C@H]1COCCN1c1nc(N2CCOC3(CC3)C2)nc2nc(-c3cccc(-c4nc[nH]n4)c3)ccc12` [Embodiment 19], 3 nM.
Same read-out and setting: with `CNC(=O)c1cccc(-c2ccc3c(N4CCOC[C@@H]4C)nc(N4CCOCC45CC5)nc3n2)c1` [Embodiment 20] the figure was 0.97 nM; with `C[C@H]1COCCN1c1nc(N2CCOC3(CC3)C2)nc2nc(-c3cccc(C(=O)NC(C)(C)C)c3)ccc12` [Embodiment 22], 1.5 nM; with `C[C@H]1COCCN1c1nc(N2CCOC3(CC3)C2)nc2nc(-c3ccc4cnc(N)nc4c3)ccc12` [Embodiment 25], 1.4 nM.
On the same count and under the same terms, with `CNC(=O)c1cccc(-c2ccc3c(N4CCOC[C@@H]4C)nc(N4CCOC5(CN(C)C5)C4)nc3n2)c1` [Embodiment 27] the figure was 6.6 nM.
With `CNC(=O)c1cccc(-c2ccc3c(N4CCOC[C@@H]4C)nc(N4CCOC5(C4)CC(F)(F)C5)nc3n2)c1` [Embodiment 28], binding in experiment [1] was characterised by a dissociation constant (Kd) of 1.4 nM.
As for `C[C@H]1COCCN1c1nc(N2CCOC3(C2)CC(F)(F)C3)nc2nc(-c3cccc(C(=O)NC4CC4)c3)ccc12` [Embodiment 29], in experiment [1], binding was characterised by a dissociation constant (Kd) of 2.7 nM. Compared with the last compound, the Kd is about 1.9-fold higher.
The same measure, in the same setting: to `CNC(=O)c1cccc(-c2ccc3c(N4CCOC[C@@H]4C)nc(N4CCCC5(C4)OCCO5)nc3n2)c1` [Embodiment 31] belongs 5 nM.
As for `CNC(=O)c1cccc(-c2ccc3c(N4CCOC[C@@H]4C)nc(N4CCOC5(COC5)C4)nc3n2)c1` [Embodiment 40], in experiment [1], the Kd is 0.78 nM.
Turning to `CNC(=O)c1cccc(-c2ccc3c(N4CCOC[C@@H]4C)nc(N4CCOC5(CSC5)C4)nc3n2)c1` [Embodiment 41], the equilibrium dissociation constant (Kd) in experiment [1] turned out to be 0.94 nM.
Same read-out and setting: to `CNC(=O)c1cccc(-c2ccc3c(N4CCOC[C@@H]4C)nc(N4CCOC5(C4)C[S+]([O-])C5)nc3n2)c1` (stereo partly shown) [Embodiment 42] belongs 0.93 nM; to `CNC(=O)c1cccc(-c2ccc3c(N4CCOC[C@@H]4C)nc(N4CCOC5(C4)CS(=O)(=O)C5)nc3n2)c1` [Embodiment 43], 12 nM.
Usually T/C stands for the result in the treated group divided by that in the control group, in per cent. Consider `CC1COCCN1c1nc(N2CCOC3(CCCC3)C2)nc2nc(-c3cccc(C(N)=O)c3)ccc12` (stereo not shown) [Embodiment 49], for which the equilibrium dissociation constant (Kd) in experiment [1] was determined as 0.3 nM. For the same compound, in experiment [2], the T/C came to 121.62% and the TGI is reported as −37.89%. In addition, the “RTV (27th day)” value in experiment [2] (27th day) was 5.07 ± 0.92. Further, the “Tumor volume (27th day)” value in experiment [2] (27th day, mean ± SEM) came out at 759 ± 174 mm^3. For the same compound, the “Tumor volume (day 0)” value in experiment [2] (day 0, mean ± SEM) amounted to 144 ± 14 mm^3.
